This note sets out measurements from US7674620B2, “Derivation of terminally differentiated dopaminergic neurons from human embryonic stem cells” (Reliance Life Sciences Pvt. Ltd., priority 2003, dated 2010).

Series [1] has as its system embryonic stem cell-derived dopaminergic neurons. As to the kind of experiment: Intracellular dopamine in cell lysates by RP-HPLC. Format: cell-based, human. The following applies: for Dopamine concentration in cell lysates by HPLC: 56 mM KCl. The procedure:
One definitive characteristic of a dopaminergic neuron is the production of dopamine. Therefore, the functional capacity of embryonic stem cell-derived dopaminergic neurons to produce dopamine was evaluated by directly measuring the intracellular dopamine levels using Reverse Phase HPLC (RP-HPLC). The concentration of dopamine detected in each sample was determined by comparison with a standard solution of dopamine injected into the column immediately before and after each experiment.
(§1) To begin, cells were collected at different stages of the disclosed method: undifferentiated ES cells, embryoid bodies, Nestin-positive neuroprogenitor cells, NCAM-positive cells, and differentiated cells isolated after 7, 22, and 37 days of differentiation in Neurobasal medium. Before collection, the cells differentiated in Neurobasal medium were first stimulated to induce dopamine secretion by the addition of 56 mM KCl in HBSS for 15 minutes. Approximately 5×10^6 cells were trypsinised and pelleted by centrifugation. The cells were then sonicated in cold 1N perchloric acid with antioxidants (0.2 g/l sodium metabisulphite), and centrifuged at 15,000 rpm/min for 20 minutes at 4° C. The supematent was extracted and stored at −70° C. for subsequent determination of the intracellular dopamine concentration by RP-HPLC. Dopamine levels were determined in the cell lysates and culture supematent (48 hrs after the last medium change). The culture supematent was immediately stabilized with 7.5% orthophosphoric acid and sodium metabisulphite.

The test system is the same in series [2]. The series can be described thus: Dopamine release into conditioned medium by RP-HPLC. Format: cell-based, human. As to conditions: 56 mM for 15 minutes, 7, 22, 37 days of differentiation. The procedure: The cells were stimulated with 56 mM KCl for 15 minutes to induce secretion of dopamine; the culture supernatant was stabilized with 7.5% orthrophosphoric acid and sodium metabisulphite before analysis by RP-HPLC.
as §1

For series [3], the system named is neuroprogenitor cells derived from human embryonic stem cells. As to the kind of experiment: Differentiation of neuroprogenitor cells into TH positive (dopaminergic) neurons, immunofluorescence. It is filed as cell-based. As to conditions: present in the Neurobasal medium. From the text: Development of dopaminergic neurons in vivo depends on the regulated action of extracellular signaling molecules. These molecules activate a cascade of transcription factors with lineage-restricted expression. These transcription factors are responsible for increasing the expression of a specific set of genes involved in the development of the dopaminergic phenotype. To encourage the expanded neuroprogenitors cells generated using the above protocol into functional dopaminergic neurons, the growth factors bFGF and EGF were first withdrawn from the cells. Next, differentiation of the neuroprogenitors cells into dopaminergic neurons was induced by culturing the cells in Neurobasal medium for 30-50 days. […]
The differentiated neuronal cell types generated according to the present disclosure were evaluated both by the overall morphology of the cells, as well as the phenotypes identified by immunoflourescence. […]
The differentiated cells were also analyzed by double-labeling the cells with primary antibodies to TH (green), along with MAP-2, DAT, Nurr-1, β-Tubulin, FITC-labeled secondary antibodies (Texas red) respectively (FIG. 8). […] The cell density of dopaminergic neurons was quantified by counting the numbers of TH-positive cells and MAP-2-positive cells per field in randomly selected fields using a 40× objective lens. The percent proportion of TH-positive cells was calculated (FIG. 9). […]

Series [4] has as its system embryonic stem cell-derived dopaminergic neurons. As to the kind of experiment: Intracellular dopamine in cell lysates by RP-HPLC. It is filed as cell-based, human. The following applies: cell cultures incubated with the neurotoxin.

For `[Cl-].[K+]` [KCl], the “Dopamine concentration in cell lysates by HPLC” value in series [1] (7 d, line #3, after 'Addition of growth factors') was 5.5 µg/mL; in series [1] (7 d, line #5, after 'N-acetyl cysteine along with growth factors'), 8.8 µg/mL; in series [1] (7 d, line #7, after 'Ascorbic acid along with growth factors'), 6.9 µg/mL; in series [1] (22 d, line #3, after 'Addition of growth factors'), 22 µg/mL; in series [1] (22 d, line #5, after 'N-acetyl cysteine along with growth factors') it was 30.9 µg/mL; in series [1] (22 d, line #7, after 'Ascorbic acid along with growth factors'), 5.5 µg/mL. Moreover, the “Dopamine concentration in cell lysates by HPLC” value is 7.2 µg/mL in series [1] (37 d, line #3, after 'Addition of growth factors'); 10 µg/mL in series [1] (37 d, line #5, after 'N-acetyl cysteine along with growth factors'); 10 µg/mL in series [1] (37 d, line #7, after 'Ascorbic acid along with growth factors'). In addition, the “dopamine release into the conditioned medium (FIG. 14)” value in series [2] is given as “causes dopamine release”; in series [2] (listed as KCL) it was “increase”.
Turning to “IL-1β: Interleukin-1β, growth factor in the Neurobasal medium”, in series [3], the “effect on amount of TH positive neurons” value was “appears to increase the amount of TH positive neurons”.
As to `CN1CC=C(c2ccccc2)CC1.Cl` [MPTP, N-methyl-4-phenyl 1,2,3,6-tetrahydropyridine hydrochloride], the “intracellular dopamine in cell lysates of treated cells (FIG. 13)” value in series [1] (7 days of differentiation) is recorded as “No dopamine was detected”; in series [1] (22 days of differentiation), “No dopamine was detected”; in series [1] (37 days of differentiation), “reduced”. Besides, in series [4], the “dopamine in cell lysates of incubated cell cultures by RP-HPLC” value is listed as “no dopamine was detected”.
